Test results as given in patent publication US20260193294A1, “POLYPEPTIDE INHIBITOR, AND PREPARATION METHOD THEREFOR AND USE THEREOF” (SHANGHAI HANSOH BIOMEDICAL CO., LTD., priority 2022, published 2026).

Experiment: Stability in plasma (human)
Format: in vitro ADME
Experimental: To study the stability of the compounds of the examples in the plasmas of mice, rats, dogs and humans.
Preparation of plasma: Animal or human whole blood was collected, then put into a test tube containing an anticoagulant, and centrifuged at 3500 rpm for 10 min, and the upper pale yellow plasma was collected; • working solution of 10 μM test compound: a stock solution was prepared with DMSO, and the working solution was prepared with 100 mM phosphate buffer; • working solution of 10 μM positive control: • procaine: 2.36 mg of procaine was weighed and diluted into a 10 mM stock solution with 1 mL of DMSO. 10 μL of the 10 mM stock solution was pipetted into 1 mL of 100 mM phosphate buffer, such that the final concentration was 100 μM; and • enalapril: 4.93 mg of enalapril was weighed and diluted into a 10 mM stock solution with 1 mL of DMSO; and 10 μL of the 10 mM stock solution was pipetted into 1 mL of 100 mM phosphate buffer, such that the final concentration was 100 μM.
In a 96-well plate, 285 μL of plasma and 15 μL of 10 μM compound (test compound, and positive control) were successively added and incubated at 37° C.
40 μL was taken at 0, 15, 30, 60, 90, and 120 min (sampling points could be fine-tuned), respectively, and 160 μL of an acetonitrile stop solution containing an internal standard was added.
After centrifugation (3500 rpm, 10 min), 50 μL of the supernatant was taken, diluted by adding 50 μL of DDH2O, and then injected for LC-MS/MS.
• Instrument: Shimadzu LC-20 AD • Chromatographic column: Phenomenex Gemiu® C18 (50*4.6 mm, 5 μm particle size) • Mobile phase: A: acetonitrile, B: 0.1% formic acid solution • Elution gradient: […]: 5% A→95% A, 2.0-2.1 min: […] • Flow rate: 0.8 mL/min • Run time: 5.0 min • Injection volume: 5 μL
• Instrument: API4000 liquid chromatography mass spectrometer, AB, US • Ion source: electrospray ionization source (ESI) • Drying gas: N2, temperature 500° C. • Electrospray voltage: 5500V • Detection mode: positive ion detection • Scan mode: multi reaction monitoring (MRM) mode • Scan time: 0.1 s
All calculations were carried out using Microsoft Excel. The peak area ratio was determined by an extracted ion chromatogram.
The residual percentage of the compound at each time point was calculated by the following equation: Residual percentage at t hours (%)=peak area ratio at t hours/peak area ratio at 0 hour×100%, in which the peak area ratio at t hr was the peak area ratio of the […] at t min; and • the slope value k was determined by linear regression on the natural logarithm of the curve of the residual percentage of the parent drug versus the incubation time.
In vitro half-life (in vitro t1/2) was determined by the slope value: […]

With `CC(=O)NCCCC[C@@H]1NC(=O)[C@H](Cc2c[nH]c3c(C)cccc23)NC(=O)[C@H]([C@@H](C)O)NC(=O)[C@H](CC(N)=O)NC(=O)[C@@H](NC(C)=O)C(C)(C)SSC(C)(C)[C@@H](C(=O)N[C@@H](Cc2ccc(OCCN)cc2)C(=O)N[C@@H](Cc2ccc3ccccc3c2)C(=O)NC2(C(=O)N[C@@H](CCC(=O)O)C(=O)N[C@@H](CC(N)=O)C(=O)N[C@@H](Cc3cccnc3)C(=O)N(C)CCNC(=O)CCOCCOCC[N+](C)(C)CCNC(=O)COCCOCCNC(=O)COCCOCCNC(=O)CC[C@H](NC(=O)CCCCCCCCCCCCCCC(=O)O)C(=O)O)CCC(F)(F)CC2)NC1=O` [Example 1-16-1] the remaining at 4 h, 0.5 µM (Human plasma, 37° C., read-out: Residual ratio % at 4 h) was 94.8% and the half-life at 0.5 μM (human, plasma) was 2480 min.
